Data set [1] relates to GroEL and GroES families of bacterial chaperones. The arrangement: method as in PMID 27184767, PMID 24418775. As to conditions: cited from earlier work.
In the next data set the test system is ESRE network. In words: hsp-16.1p::GFP reporter (ESRE activation). The data set is classed as in vivo, Caenorhabditis elegans. As to conditions: 50 or 100 μM, no pathogen. The source says:
Previous work from our lab has established that the ESRE network plays an important role in the resistance of C. elegans to pyoverdine, the main virulence determinant in liquid killing, and recent evidence has shown that ESRE activation depends on increased reactive oxygen species (ROS) ([23], [38], [39]). To evaluate ESRE activation, worms carrying an hsp-16.1p::GFP reporter (which contains two ESRE motifs and was previously used as an indicator of ESRE activation [[39][–][41]]), were exposed to 50 or 100 μM LK35, LK38, LK56, juglone (positive control), or DMSO. […] ROS level was assessed based on the fluorescence of dihydroethidium (DHE; a ROS-specific dye) using a COPAS FlowSort for flow vermimetry.
Young adult wild-type (A), hsp-4p::GFP (B), hsp-16.1p::GFP (C), or rpt-3::GFP (D) worms were incubated with LK molecules at 50 or 100 µM, DMSO control, or positive controls. For panel A, the worms were treated with compound for 10 h, and then the worms were stained with 4 µM DHE for 1 h before washing and fluorescence measurement. For panels B to D, the worms were treated with compound for 15 h prior to fluorescence measurement. Mean values from at least three biological replicates are shown. *, P < 0.05; **, P < 0.01; ***, P < 0.001 (compared to the solvent control). P values were calculated using Student’s t test. Error bars represent the standard error of the mean. […]

Another data set relates to MOLT-4. To be noted: cited from earlier work.
A further data set relates to CCRF-CEM. To be noted: cited from earlier work.

The structures appear in SMILES notation.

As for `CNC(=O)Oc1c(Br)cc2sc(=O)oc2c1Br` [LK34], the “Inhibition of GroEL and GroES chaperones” value in data set [1] is recorded as “potent inhibitor”.

`O=c1cc(CNc2ccc(Br)cc2)nc2sccn12` [LK56]: the “ESRE activation (hsp-16.1p::GFP)” value in the data set with ESRE network was “weak activation”.

For `COC(=O)/C=C/C(=O)Nc1ccccc1` [LK32], the LD50 with MOLT-4 and in the data set on CCRF-CEM was ~40 µM each time.

The values are drawn from PMC7845594, “Novel Immune Modulators Enhance Caenorhabditis elegans Resistance to Multiple Pathogens” (mSphere, 2021).
